# Data taken from PubChem BioAssay (NCI).
#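 Cultured in 96-well plates, cells were exposed to test compound for 48 hours across five concentrations. Definition used: TGI = concentration required for complete inhibition of growth.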
# Tests used:
# Assay in all cases: inhibition of tumour cell growth, NCI panel, 48 h
# UACC-257 melanoma = system: UACC-257 melanoma
# ACHN renal = system: ACHN renal
# HS 578T breast = system: HS 578T breast
# CAKI-1 renal = system: CAKI-1 renal
# SK-OV-3 ovarian = system: SK-OV-3 ovarian
# MALME-3M melanoma = system: MALME-3M melanoma
# LOX IMVI melanoma = system: LOX IMVI melanoma
# NCI-H226 lung = system: NCI-H226 lung
# MCF7 breast = system: MCF7 breast
# RPMI-8226 leukemia = system: RPMI-8226 leukemia
# HOP-92 NSCLC = system: HOP-92 NSCLC
# NCI-H23 lung = system: NCI-H23 lung
# U251 CNS = system: U251 CNS
# OVCAR-8 ovarian = system: OVCAR-8 ovarian
# HCT-116 colon = system: HCT-116 colon
# IGROV1 ovarian = system: IGROV1 ovarian
# MDA-MB-435 = system: MDA-MB-435
# OVCAR-5 ovarian = system: OVCAR-5 ovarian
# HOP-62 NSCLC = system: HOP-62 NSCLC
# BT-549 breast = system: BT-549 breast
# SR leukemia = system: SR leukemia
# UO-31 renal = system: UO-31 renal
# A498 renal = system: A498 renal
# SNB-19 CNS = system: SNB-19 CNS
# NCI/ADR-RES ovarian = system: NCI/ADR-RES ovarian
# MDA-N = system: MDA-N
# MOLT-4 leukemia = system: MOLT-4 leukemia
# HT29 colon = system: HT29 colon
# SK-MEL-5 melanoma = system: SK-MEL-5 melanoma
# CCRF-CEM leukemia = system: CCRF-CEM leukemia
# K-562 leukemia = system: K-562 leukemia
# SF-539 CNS = system: SF-539 CNS
# 786-0 renal = system: 786-0 renal
# MDA-MB-231 breast = system: MDA-MB-231 breast
# PC-3 prostate = system: PC-3 prostate
# EKVX NSCLC = system: EKVX NSCLC
# SK-MEL-28 melanoma = system: SK-MEL-28 melanoma
# NCI-H522 lung = system: NCI-H522 lung
# A549 NSCLC = system: A549 NSCLC
# NCI-H460 lung = system: NCI-H460 lung
# HCT-15 colon = system: HCT-15 colon
# T-47D breast = system: T-47D breast
# SNB-75 CNS = system: SNB-75 CNS
# OVCAR-3 ovarian = system: OVCAR-3 ovarian
# COLO 205 colon = system: COLO 205 colon
# SF-295 CNS = system: SF-295 CNS
# HL-60(TB) leukemia = system: HL-60(TB) leukemia
# SF-268 CNS = system: SF-268 CNS
# SW-620 colon = system: SW-620 colon
# OVCAR-4 ovarian = system: OVCAR-4 ovarian
# SK-MEL-2 melanoma = system: SK-MEL-2 melanoma
# TK-10 renal = system: TK-10 renal
# RXF 393 renal = system: RXF 393 renal
# UACC-62 melanoma = system: UACC-62 melanoma
# KM12 colon = system: KM12 colon
# SN12C renal = system: SN12C renal
# M14 melanoma = system: M14 melanoma
# DU-145 prostate = system: DU-145 prostate
# HCC-2998 colon = system: HCC-2998 colon
smiles,measurement,setting,value
COc1cc(NS(C)(=O)=O)ccc1NCc1cnc2ccc3[nH]c(C)ccc3c12,TGI,UACC-257 melanoma,> 100 µM
same,TGI,ACHN renal,> 100 µM
same,TGI,HS 578T breast,> 100 µM
same,TGI,CAKI-1 renal,68.8 µM
same,TGI,SK-OV-3 ovarian,> 100 µM
same,TGI,MALME-3M melanoma,> 100 µM
same,TGI,LOX IMVI melanoma,> 100 µM
same,TGI,NCI-H226 lung,> 100 µM
same,TGI,MCF7 breast,> 100 µM
same,TGI,RPMI-8226 leukemia,45.2 µM
same,TGI,HOP-92 NSCLC,> 100 µM
same,TGI,NCI-H23 lung,> 100 µM
same,TGI,U251 CNS,> 100 µM
same,TGI,OVCAR-8 ovarian,> 100 µM
same,TGI,HCT-116 colon,> 100 µM
same,TGI,IGROV1 ovarian,> 100 µM
same,TGI,MDA-MB-435,80.4 µM
same,TGI,OVCAR-5 ovarian,> 100 µM
same,TGI,HOP-62 NSCLC,> 100 µM
same,TGI,BT-549 breast,> 100 µM
same,TGI,SR leukemia,33.5 µM
same,TGI,UO-31 renal,60.6 µM
same,TGI,A498 renal,42 µM
same,TGI,SNB-19 CNS,> 100 µM
same,TGI,NCI/ADR-RES ovarian,> 100 µM
same,TGI,MDA-N,> 100 µM
same,TGI,MOLT-4 leukemia,44.7 µM
same,TGI,HT29 colon,> 100 µM
same,TGI,SK-MEL-5 melanoma,> 100 µM
same,TGI,CCRF-CEM leukemia,67.2 µM
same,TGI,K-562 leukemia,62.2 µM
same,TGI,SF-539 CNS,> 100 µM
same,TGI,786-0 renal,> 100 µM
same,TGI,MDA-MB-231 breast,> 100 µM
same,TGI,PC-3 prostate,> 100 µM
same,TGI,EKVX NSCLC,> 100 µM
same,TGI,SK-MEL-28 melanoma,> 100 µM
same,TGI,NCI-H522 lung,> 100 µM
same,TGI,A549 NSCLC,> 100 µM
same,TGI,NCI-H460 lung,> 100 µM
same,TGI,HCT-15 colon,> 100 µM
same,TGI,T-47D breast,75 µM
same,TGI,SNB-75 CNS,78.4 µM
same,TGI,OVCAR-3 ovarian,91.9 µM
same,TGI,COLO 205 colon,> 100 µM
same,TGI,SF-295 CNS,> 100 µM
same,TGI,HL-60(TB) leukemia,34.9 µM
same,TGI,SF-268 CNS,> 100 µM
same,TGI,SW-620 colon,> 100 µM
same,TGI,OVCAR-4 ovarian,> 100 µM
same,TGI,SK-MEL-2 melanoma,52.3 µM
same,TGI,TK-10 renal,> 100 µM
same,TGI,RXF 393 renal,39.5 µM
same,TGI,UACC-62 melanoma,> 100 µM
same,TGI,KM12 colon,> 100 µM
same,TGI,SN12C renal,> 100 µM
same,TGI,M14 melanoma,> 100 µM
same,TGI,DU-145 prostate,89.1 µM
CCOC(=O)CC(=O)NC1CC2CCC1(C)C2(C)C (stereo unspecified),TGI,UACC-257 melanoma,> 100 µM
same,TGI,ACHN renal,> 100 µM
same,TGI,HS 578T breast,> 100 µM
same,TGI,CAKI-1 renal,> 100 µM
same,TGI,SK-OV-3 ovarian,> 100 µM
same,TGI,MALME-3M melanoma,> 100 µM
same,TGI,LOX IMVI melanoma,> 100 µM
same,TGI,NCI-H226 lung,> 100 µM
same,TGI,MCF7 breast,> 100 µM
same,TGI,RPMI-8226 leukemia,> 100 µM
same,TGI,NCI-H23 lung,> 100 µM
same,TGI,U251 CNS,> 100 µM
same,TGI,OVCAR-8 ovarian,> 100 µM
same,TGI,HCT-116 colon,> 100 µM
same,TGI,IGROV1 ovarian,> 100 µM
same,TGI,MDA-MB-435,> 100 µM
same,TGI,OVCAR-5 ovarian,> 100 µM
same,TGI,HOP-62 NSCLC,> 100 µM
same,TGI,BT-549 breast,> 100 µM
same,TGI,SR leukemia,> 100 µM
same,TGI,UO-31 renal,> 100 µM
same,TGI,A498 renal,> 100 µM
same,TGI,SNB-19 CNS,> 100 µM
same,TGI,NCI/ADR-RES ovarian,> 100 µM
same,TGI,MDA-N,> 100 µM
same,TGI,MOLT-4 leukemia,> 100 µM
same,TGI,HT29 colon,> 100 µM
same,TGI,SK-MEL-5 melanoma,> 100 µM
same,TGI,CCRF-CEM leukemia,> 100 µM
same,TGI,K-562 leukemia,> 100 µM
same,TGI,SF-539 CNS,> 100 µM
same,TGI,786-0 renal,> 100 µM
same,TGI,MDA-MB-231 breast,> 100 µM
same,TGI,PC-3 prostate,> 100 µM
same,TGI,EKVX NSCLC,> 100 µM
same,TGI,SK-MEL-28 melanoma,> 100 µM
same,TGI,A549 NSCLC,> 100 µM
same,TGI,NCI-H460 lung,> 100 µM
same,TGI,HCT-15 colon,> 100 µM
same,TGI,SNB-75 CNS,> 100 µM
same,TGI,OVCAR-3 ovarian,> 100 µM
same,TGI,COLO 205 colon,> 100 µM
same,TGI,SF-295 CNS,> 100 µM
same,TGI,HL-60(TB) leukemia,> 100 µM
same,TGI,SF-268 CNS,> 100 µM
same,TGI,SW-620 colon,> 100 µM
same,TGI,OVCAR-4 ovarian,> 100 µM
same,TGI,TK-10 renal,> 100 µM
same,TGI,RXF 393 renal,> 100 µM
same,TGI,UACC-62 melanoma,> 100 µM
same,TGI,HCC-2998 colon,> 100 µM
same,TGI,KM12 colon,> 100 µM
same,TGI,SN12C renal,> 100 µM
same,TGI,M14 melanoma,> 100 µM
same,TGI,DU-145 prostate,> 100 µM
O=c1c2ccccc2nc2n1NC(c1c(Cl)cccc1Cl)N2c1cccc(Cl)c1 (stereo unspecified),TGI,UACC-257 melanoma,> 100 µM
same,TGI,ACHN renal,12.5 µM
same,TGI,HS 578T breast,> 100 µM
same,TGI,CAKI-1 renal,47.2 µM
same,TGI,SK-OV-3 ovarian,6.81 µM
same,TGI,MALME-3M melanoma,29.7 µM
same,TGI,LOX IMVI melanoma,> 100 µM
same,TGI,NCI-H226 lung,6.36 µM
same,TGI,MCF7 breast,5.2 µM
same,TGI,RPMI-8226 leukemia,> 100 µM
same,TGI,HOP-92 NSCLC,21.8 µM
same,TGI,NCI-H23 lung,56.7 µM
same,TGI,U251 CNS,5.19 µM
same,TGI,OVCAR-8 ovarian,12 µM
same,TGI,HCT-116 colon,11.6 µM
same,TGI,IGROV1 ovarian,22.4 µM
same,TGI,MDA-MB-435,> 100 µM
same,TGI,OVCAR-5 ovarian,19.1 µM
same,TGI,HOP-62 NSCLC,> 100 µM
same,TGI,BT-549 breast,> 100 µM
same,TGI,SR leukemia,> 100 µM
same,TGI,UO-31 renal,7.39 µM
same,TGI,SNB-19 CNS,18 µM
same,TGI,NCI/ADR-RES ovarian,68.5 µM
same,TGI,MDA-N,> 100 µM
same,TGI,MOLT-4 leukemia,> 100 µM
same,TGI,HT29 colon,> 100 µM
same,TGI,SK-MEL-5 melanoma,65.5 µM
same,TGI,CCRF-CEM leukemia,> 100 µM
same,TGI,K-562 leukemia,> 100 µM
same,TGI,SF-539 CNS,31 µM
same,TGI,786-0 renal,4.24 µM
same,TGI,MDA-MB-231 breast,9.94 µM
same,TGI,PC-3 prostate,28.1 µM
same,TGI,EKVX NSCLC,> 100 µM
same,TGI,SK-MEL-28 melanoma,> 100 µM
same,TGI,NCI-H522 lung,28.8 µM
same,TGI,A549 NSCLC,22.2 µM
same,TGI,NCI-H460 lung,34.6 µM
same,TGI,HCT-15 colon,> 100 µM
same,TGI,T-47D breast,32.2 µM
same,TGI,SNB-75 CNS,9.92 µM
same,TGI,OVCAR-3 ovarian,54.2 µM
same,TGI,COLO 205 colon,> 100 µM
same,TGI,SF-295 CNS,> 100 µM
same,TGI,HL-60(TB) leukemia,> 100 µM
same,TGI,SF-268 CNS,> 100 µM
same,TGI,SW-620 colon,14.3 µM
same,TGI,OVCAR-4 ovarian,6.73 µM
same,TGI,SK-MEL-2 melanoma,> 100 µM
same,TGI,TK-10 renal,21.8 µM
same,TGI,RXF 393 renal,18.5 µM
same,TGI,UACC-62 melanoma,22.9 µM
same,TGI,HCC-2998 colon,> 100 µM
same,TGI,KM12 colon,> 100 µM
same,TGI,SN12C renal,21.9 µM
same,TGI,M14 melanoma,66.6 µM
same,TGI,DU-145 prostate,> 100 µM
